Test results published in patent US10314841B2, “Substituted pyrazoles as IRAK inhibitors” (Merck Patent GmbH, priority 2014, dated 2019).

Tests used:
[1] = biological target: T1, IRAK1 (His-TEV-IRAK1 (194-712)) (Homo sapiens, UniProt P51617); test: IRAK1 enzymatic assay; format: biochemical; conditions: human recombinant His-TEV-IRAK1, ATP 1 μM, 3 hours at 30° C., FlashPlate
T1 construct: His-TEV-IRAK1 (194-712); His (N); TEV cleavage site (N)
Description: IRAK1 Enzymatic Assay IRAK1 is a human purified recombinant enzyme (His-TEV-IRAK1 (194-712)). In this assay, IRAK-1 hydrolyses ATP and autophosphorylates. Measurement of IRAK-1 inhibition was performed in streptavidin coated 384 well FlashPlate (PerkinElmer #SM[…]). His-TEV-IRAK-1 (15 ng/well), ATP (1 μ[…]]ATP 0.25 μCi/well) and compounds in DMSO (range of concentrations from 20 μM to 1 nM) or controls (2% DMSO) were incubated for 3 hours at 30° C. in assay buffer: Hepes pH7.0 50 mM, Fatty acid-free BSA 0.1%, Dithiothreitol DTT 2 mM, MgCl2 10 mM, EGTA 0.5 mM, Triton-X-100 0.01%. Kinase reaction was stopped by addition of EDTA. Supernatant was discarded, plates were washed three times with 150 mM NaCl and radioactivity was then measured in a Microbeta Trilux reader.

[2] = biological target: T2, IRAK4 (His-TEV-IRAK4) (Homo sapiens, UniProt Q9NWZ3); test: IRAK4 enzymatic assay; format: biochemical; conditions: human recombinant His-TEV-IRAK4, ATP 2 μM, STK1-biotin peptide 300 nM, 3 hours at 30° C., FlashPlate
T2 construct: His (N); TEV cleavage site (N)
T2 sequence (Q9NWZ3 1-460): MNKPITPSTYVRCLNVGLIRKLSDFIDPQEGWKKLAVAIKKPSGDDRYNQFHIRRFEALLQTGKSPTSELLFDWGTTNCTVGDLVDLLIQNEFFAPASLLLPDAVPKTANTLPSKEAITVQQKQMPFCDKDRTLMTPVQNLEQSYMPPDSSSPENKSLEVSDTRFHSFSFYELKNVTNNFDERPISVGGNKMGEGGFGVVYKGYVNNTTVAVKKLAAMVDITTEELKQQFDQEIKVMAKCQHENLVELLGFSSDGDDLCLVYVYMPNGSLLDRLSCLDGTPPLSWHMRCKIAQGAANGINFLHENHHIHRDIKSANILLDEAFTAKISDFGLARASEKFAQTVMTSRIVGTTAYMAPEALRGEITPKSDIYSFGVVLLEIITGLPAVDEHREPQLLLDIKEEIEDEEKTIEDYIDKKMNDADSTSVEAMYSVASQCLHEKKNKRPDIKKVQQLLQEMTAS
Description: IRAK4 Enzymatic Assay IRAK4 is a human purified recombinant enzyme (His-TEV-[…] (194-712). IRAK4 hydrolyses ATP, autophosphorylates and phosphorylates a Serine/Threonine generic peptidic substrate (STK: 61 ST1BLC from CisBio International based in Bagnols/Cèze FR). Measurement of IRAK-4 inhibition was performed in streptavidin coated 384 well FlashPlate (PerkinElmer #SM[…]). His-TEV-IRAK4 (20 ng/well), ATP (2 μM, [^33P]ATP 0.25 μCi/well), STK1-biotin peptide (300 nM) and compounds in DMSO (range of concentrations from 20 μM to 1 nM) or controls (2% DMSO) were incubated for 3 hours at 30° C. in assay buffer: Hepes pH7.0 50 mM, Fatty acid-free BSA 0.1%, Dithiothreitol DTT 2 mM, MgCl2 10 mM, EGTA 0.5 mM, Tween-20 0.01%, MnCl2 5 mM. Kinase reaction was stopped by addition of EDTA. Supernatant was discarded, plates were washed three times with 150 mM NaCl and radioactivity was then measured in a Microbeta Trilux reader.

T1 sequence (P51617 194-712): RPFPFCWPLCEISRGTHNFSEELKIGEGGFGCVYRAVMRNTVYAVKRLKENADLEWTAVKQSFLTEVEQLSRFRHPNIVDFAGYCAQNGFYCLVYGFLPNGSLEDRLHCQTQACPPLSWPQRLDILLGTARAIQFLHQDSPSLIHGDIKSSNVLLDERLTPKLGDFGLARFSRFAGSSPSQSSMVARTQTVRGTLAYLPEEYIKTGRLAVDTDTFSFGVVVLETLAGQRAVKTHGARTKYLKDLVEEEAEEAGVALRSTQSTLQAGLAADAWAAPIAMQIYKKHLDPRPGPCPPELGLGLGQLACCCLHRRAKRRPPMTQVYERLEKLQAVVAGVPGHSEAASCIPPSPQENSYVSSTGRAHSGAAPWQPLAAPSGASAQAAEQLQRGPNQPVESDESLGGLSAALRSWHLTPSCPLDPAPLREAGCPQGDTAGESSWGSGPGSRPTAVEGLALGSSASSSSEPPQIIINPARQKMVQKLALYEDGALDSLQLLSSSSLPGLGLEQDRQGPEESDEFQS

Row | Compound | IC50 [1] | IC50 [2]
1 | CC(=O)N1CCC(n2cc(-c3cnc(-c4cccc(-c5cnn(C)c5)c4)nc3)cn2)C(CO)C1 (mixture of isomers) [Compound 22, 1-[3-Hydroxymethyl-4-(4-{2-[3-(1-methyl-1H-pyrazol-4-yl)-phenyl]-pyrimidin-5-yl}-pyrazol-1-yl)-piperidin-1-yl]-ethanone] | 100 to 1000 nM | < 100 nM
2 | Cn1cc(-c2cccc(-c3ncc(-c4cnn([C@H]5CCC[C@H](N6CCOCC6)C5)c4)cn3)c2)cn1 (relative stereo) [Compound 5, 4-[Trans-3-(4-{2-[3-(1-Methyl-1H-pyrazol-4-yl)-phenyl]-pyrimidin-5-yl}-pyrazol-1-yl)-cyclohexyl]-morpholine] | 100 to 1000 nM | 100 to 1000 nM
3 | Cn1cc(-c2cccc(-c3ncc(-c4cnn(C5CCCC(O)(CO)C5)c4)cn3)c2)cn1 (stereo not shown) [Compound 1, 1-Hydroxymethyl-3-(4-{2-[3-(1-methyl-1H-pyrazol-4-yl)-phenyl]-pyrimidin-5-yl}-pyrazol-1-yl)-cyclohexanol] | 100 to 1000 nM | < 100 nM
4 | Cn1cc(-c2cccc(-c3ncc(-c4cnn(CCNC(=O)OC(C)(C)C)c4)cn3)c2)cn1 [Compound 6, [2-(4-{2-[3-(1-Methyl-1H-pyrazol-4-yl)-phenyl]-pyrimidin-5-yl}-pyrazol-1-yl)-ethyl]-carbamic acid tert-butyl ester] | 100 to 1000 nM | 100 to 1000 nM
5 | Cn1cc(-c2cccc(-c3ncc(-c4cnn(C5CCCN(C(=O)OC(C)(C)C)C5)c4)cn3)c2)cn1 (stereo not shown) [Compound 7, 3-(4-{2-[3-(1-Methyl-1H-pyrazol-4-yl)-phenyl]-pyrimidin-5-yl}-pyrazol-1-yl)-piperidine-1-carboxylic acid tert-butyl ester] | 100 to 1000 nM | 100 to 1000 nM
6 | Cn1cc(-c2cccc(-c3ncc(-c4cnn(C5CCN(C(=O)OC(C)(C)C)CC5)c4)cn3)c2)cn1 [Compound 8, 4-(4-{2-[3-(1-Methyl-1H-pyrazol-4-yl)-phenyl]-pyrimidin-5-yl}-pyrazol-1-yl)-piperidine-1-carboxylic acid tert-butyl ester] | 100 to 1000 nM | 100 to 1000 nM
7 | C=CC(=O)NCCn1cc(-c2cnc(-c3cccc(-c4cnn(C)c4)c3)nc2)cn1 [Compound 13, N-[2-(4-{2-[3-(1-Methyl-1H-pyrazol-4-yl)-phenyl]-pyrimidin-5-yl}-pyrazol-1-yl)-ethyl]-acrylamide] | 100 to 1000 nM | 100 to 1000 nM
8 | C=CS(=O)(=O)NCCn1cc(-c2cnc(-c3cccc(-c4cnn(C)c4)c3)nc2)cn1 [Compound 16, Ethenesulfonic acid [2-(4-{2-[3-(1-methyl-1H-pyrazol-4-yl)-phenyl]-pyrimidin-5-yl}-pyrazol-1-yl)-ethyl]-amide] | 100 to 1000 nM | 100 to 1000 nM
9 | Cn1cc(-c2cccc(-c3ncc(-c4cnn([C@H]5C[C@@H]6CC[C@@H](N6)C5F)c4)cn3)c2)cn1 (stereo partly shown) [Compound 19, 2-Fluoro-3-(4-{2-[3-(1-methyl-1H-pyrazol-4-yl)-phenyl]-pyrimidin-5-yl}-pyrazol-1-yl)-8-aza-bicyclo[3.2.1]octane] | < 100 nM | < 100 nM
10 | CN1[C@H]2CC[C@@H]1C(F)[C@@H](n1cc(-c3cnc(-c4cccc(-c5cnn(C)c5)c4)nc3)cn1)C2 (stereo partly shown) [Compound 20, 2-Fluoro-8-methyl-3-(4-{2-[3-(1-methyl-1H-pyrazol-4-yl)-phenyl]-pyrimidin-5-yl}-pyrazol-1-yl)-8-aza-bicyclo[3.2.1]octane] | 100 to 1000 nM | 100 to 1000 nM
11 | Cn1cc(-c2cccc(-c3ncc(-c4cnn(C5CCCNC(=O)C5)c4)cn3)c2)cn1 (stereo not shown) [Compound 23, 4-(4-{2-[3-(1-Methyl-1H-pyrazol-4-yl)-phenyl]-pyrimidin-5-yl}-pyrazol-1-yl)-azepan-2-one] | 100 to 1000 nM | < 100 nM
12 | CN1CCCC(n2cc(-c3cnc(-c4cccc(-c5cnn(C)c5)c4)nc3)cn2)CC1=O (stereo not shown) [Compound 24, 1-Methyl-4-(4-{2-[3-(1-methyl-1H-pyrazol-4-yl)-phenyl]-pyrimidin-5-yl}-pyrazol-1-yl)-azepan-2-one] | 100 to 1000 nM | < 100 nM
13 | Cn1cc(-c2cccc(-c3ncc(-c4cnn(C5CCCC(N6CCCC(F)(F)C6)C5)c4)cn3)c2)cn1 (stereo not shown) [Compound 25, 5-{1-[3-(3,3-Difluoro-piperidin-1-yl)-cyclohexyl]-1H-pyrazol-4-yl}-2-[3-(1-methyl-1H-pyrazol-4-yl)-phenyl]-pyrimidine] | 100 to 1000 nM | < 100 nM
14 | COCC1CNCCC1n1cc(-c2cnc(-c3cccc(-c4cnn(C)c4)c3)nc2)cn1 (stereo not shown) [Compound 29, 5-[1-(3-Methoxymethyl-piperidin-4-yl)-1H-pyrazol-4-yl]-2-[3-(1-methyl-1H-pyrazol-4-yl)-phenyl]-pyrimidine] | 1000 to 20000 nM | 100 to 1000 nM
15 | O[C@H]1CC[C@H](n2cc(-c3cnc(-c4cccc(-c5cnn(CCN6CCOCC6)c5)c4)nc3)cn2)CC1 [Compound 30, (1r,4r)-4-[4-(2-{3-[1-(2-Morpholin-4-yl-ethyl)-1H-pyrazol-4-yl]-phenyl}-pyrimidin-5-yl)-pyrazol-1-yl]-cyclohexanol] | 1000 to 20000 nM | 100 to 1000 nM
16 | Cn1cc(-c2cccc(-c3ncc(-c4cnn([C@H]5CC[C@]6(CCC(=O)N6CCO)CC5)c4)cn3)c2)cn1 [Compound 31, 1-(2-Hydroxy-ethyl)-8-(4-{2-[3-(1-methyl-1H-pyrazol-4-yl)-phenyl]-pyrimidin-5-yl}-pyrazol-1-yl)-1-aza-spiro[4.5]decan-2-one] | 100 to 1000 nM | < 100 nM
17 | O[C@H]1CC[C@H](n2cc(-c3cnc(-c4cccc(-c5cnn(C6CCNCC6)c5)c4)nc3)cn2)CC1 [Compound 32, 4-(4-{2-[3-(1-Piperidin-4-yl-1H-pyrazol-4-yl)-phenyl]-pyrimidin-5-yl}-pyrazol-1-yl)-cyclohexanol] | 1000 to 20000 nM | 100 to 1000 nM
18 | CC1COCCC1N1CCC[C@H](n2cc(-c3cnc(-c4cccc(-c5cnn(C)c5)c4)nc3)cn2)C1 (stereo partly drawn) [Compound 39, 2-[3-(1-Methyl-1H-pyrazol-4-yl)-phenyl]-5-{1-[(S)-1-(3-methyl-tetrahydro-pyran-4-yl)-piperidin-3-yl]-1H-pyrazol-4-yl}-pyrimidine] | 100 to 1000 nM | 100 to 1000 nM
19 | CC1COCCC1N1CCC[C@@H](n2cc(-c3cnc(-c4cccc(-c5cnn(C)c5)c4)nc3)cn2)C1 (stereo partly drawn) [Compound 40, 2-[3-(1-Methyl-1H-pyrazol-4-yl)-phenyl]-5-{1-[(R)-1-(3-methyl-tetrahydro-pyran-4-yl)-piperidin-3-yl]-1H-pyrazol-4-yl}-pyrimidine] | 100 to 1000 nM | 100 to 1000 nM
20 | Cn1cc(-c2cccc(-c3ncc(-c4cnn(C5CCC(C(=O)O)C5)c4)cn3)c2)cn1 (stereo not shown) [Compound 42, 3-(4-{2-[3-(1-Methyl-1H-pyrazol-4-yl)-phenyl]-pyrimidin-5-yl}-pyrazol-1-yl)-cyclopentanecarboxylic acid] | 1000 to 20000 nM | 100 to 1000 nM
21 | Cn1ccc(-c2cccc(-c3ncc(-c4cnn([C@H]5CC[C@]6(CCC(=O)N6C)CC5)c4)cn3)c2)n1 [Compound 44, 1-Methyl-8-(4-{2-[3-(1-methyl-1H-pyrazol-3-yl)-phenyl]-pyrimidin-5-yl}-pyrazol-1-yl)-1-aza-spiro[4.5]decan-2-one] | – | < 100 nM
22 | CN(C)C/C=C/C(=O)N1CCC(n2cc(-c3cnc(-c4cccc(-c5cnn(C)c5)c4)nc3)cn2)CC1 [Compound 47, (E)-4-Dimethylamino-1-[4-(4-{2-[3-(1-methyl-1H-pyrazol-4-yl)-phenyl]-pyrimidin-5-yl}-pyrazol-1-yl)-piperidin-1-yl]-but-2-en-1-one] | 100 to 1000 nM | 100 to 1000 nM
